Laboratory results from article PMC9747239, “State-selective modulation of heterotrimeric Gαs signaling with macrocyclic peptides” (Cell, 2022).
Where a SMILES comes first, the peptide text is derived from it. Bridges are numbered along the chain shown (N, C = ends). Where no end group is shown, it is not given here. [ ]: non-standard residue; d: D form. The star is where a group is joined. NH(CH2CH2O)2(CH2)6Cl = ClCCCCCCOCCOCCN*

B1: GD20 (peptide)
peptide: {CH2CO}-[dY]LITFRQWAFNLPCG
modifications: thioether N-14
notes: Selected by RaPID mRNA display; Synthesised on NovaPEG Rink Amide resin, so a C-terminal amide is surmised; source: synthetic peptide (Fmoc solid phase synthesis, cyclised, RP-HPLC)

Columns and labels:
[1] = system: HeLa cells; assay: Chloroalkane penetration assay (CAPA); type: cell-based, human; conditions: HeLa cells expressing HaloTag, 19.5 h incubation
Procedure: The cell lines used for CAPA were HeLa cell lines, generated by Chenoweth and co-workers, that stably express HaloTag exclusively in the cytosol ([Peraro et al., 2018]). Cells were seeded in a 96-well plate the day before the experiment at a density of 4 × 10^4 cells per well. The day of the experiment the media was aspirated, and 100 μL of cyclic peptide dilutions in DMEM were added to the cells. Plate was incubated for 19.5 h at 37°C with 5% CO2. The contents of the wells were aspirated off, and wells were washed using fresh Opti-MEM for 15 min. The wash was aspirated off, and the cells were chased using 5 μM ct-TAMRA for 15 min, except for the No-ct-TAMRA control wells, which were incubated with Opti-MEM alone. The contents of the wells were aspirated and washed with fresh Opti-MEM for 30 min. After aspiration, cells were rinsed once with PBS (PBS). The cells were then trypsinized, quenched with DMEM, resuspended in PBS, and analyzed using a benchtop flow cytometer (CytoFLEX, Beckman). Final [cyclic peptide]: 0, 0.034, 0.10, 0.31, 0.93, 2.78, 8.33, 25 μM.

[2] = molecular target: T1, Biotinylated Avi-Gαs (WT), residues 7-380 of the short isoform of human Gαs (human, biotin on the Avi tag); assay: BLI; biotinylated Gαs loaded with GDP immobilised on streptavidin biosensors (2-3 nm), cyclic peptide as analyte (4.12-1000 nM), association 120 s, dissociation 120 s, 25 °C, 10 mM HEPES pH 7.4, 150 mM NaCl, 1 mM MgCl2, 0.05% Tween 20, 0.1% DMSO, 0.2 mM GDP; double reference subtraction, 1:1 binding model; conditions: both partners purified
T1 construct: Gαs (GNAS), human, short isoform (380 residues), residues 7-380; Loaded with GppNHp (GNP) or GDP as the assay says; also called Biotinylated Gαs/GNP; Biotinylated Gαs/GDP; source: E. coli BL21(DE3), purified (TALON, Source-15Q, gel filtration), biotinylated with BirA; not shown: Avi tag, N-terminal, kept; His6, N-terminal, cleaved
T1 chain: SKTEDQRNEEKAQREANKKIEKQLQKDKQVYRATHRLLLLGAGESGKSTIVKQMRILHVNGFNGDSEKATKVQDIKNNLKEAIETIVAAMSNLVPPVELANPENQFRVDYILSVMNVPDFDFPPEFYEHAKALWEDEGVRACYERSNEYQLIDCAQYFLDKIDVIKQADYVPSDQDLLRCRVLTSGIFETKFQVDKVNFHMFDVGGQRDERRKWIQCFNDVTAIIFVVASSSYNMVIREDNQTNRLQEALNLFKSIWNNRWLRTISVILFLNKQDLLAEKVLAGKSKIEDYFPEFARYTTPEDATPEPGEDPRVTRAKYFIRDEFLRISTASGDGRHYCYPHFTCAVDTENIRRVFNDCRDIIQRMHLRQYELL

Row | cell penetration (CAPA) [1] | koff [2] | kon [2] | Molecule
1 | further improved cell penetration | – | – | CC[C@H](C)[C@@H]1NC(=O)[C@H](CC(C)C)NC(=O)[C@@H](Cc2ccc(O)cc2)NC(=O)CSC[C@@H](C(=O)NCC(=O)NCCOCCOCCCCCCCl)NC(=O)[C@@H]2CCCN2C(=O)[C@H](CC(C)C)NC(=O)[C@H](CC(N)=O)NC(=O)[C@H](CC(C)C)NC(=O)[C@H](C)NC(=O)[C@H](Cc2c[nH]c3ccccc23)NC(=O)[C@H](CCC(N)=O)NC(=O)[C@H](CCCNC(=N)N)NC(=O)[C@H](Cc2ccccc2)NC(=O)[C@H]([C@@H](C)O)NC1=O [ct-GD20-F10L] ({CH2CO}-[dY]LITFRQWALNLPCG-{NH(CH2CH2O)2(CH2)6Cl}; thioether N-14)
2 | measurable cell penetration | – | – | CC[C@H](C)[C@@H]1NC(=O)[C@H](C)NC(=O)[C@H](Cc2ccc(O)cc2)NC(=O)[C@H](C(C)C)NC(=O)[C@H](CO)NC(=O)[C@H](CCC(N)=O)NC(=O)[C@H](Cc2ccccc2)NC(=O)[C@@H](Cc2ccc(O)cc2)NC(=O)CSC[C@@H](C(=O)NCC(=O)NCCOCCOCCCCCCCl)NC(=O)[C@H](CC(C)C)NC(=O)[C@H]([C@@H](C)O)NC(=O)CNC(=O)[C@H](Cc2c[nH]c3ccccc23)NC1=O [ct-GN13-E3Q] ({CH2CO}-[dY]FQSVYAIWGTLCG-{NH(CH2CH2O)2(CH2)6Cl}; thioether N-13)
3 | cell permeable | – | – | CC[C@H](C)[C@@H]1NC(=O)[C@H](CC(C)C)NC(=O)[C@@H](Cc2ccc(O)cc2)NC(=O)CSC[C@@H](C(=O)NCC(=O)NCCOCCOCCCCCCCl)NC(=O)[C@@H]2CCCN2C(=O)[C@H](CC(C)C)NC(=O)[C@H](CC(N)=O)NC(=O)[C@H](Cc2ccccc2)NC(=O)[C@H](C)NC(=O)[C@H](Cc2c[nH]c3ccccc23)NC(=O)[C@H](CCC(N)=O)NC(=O)[C@H](CCCNC(=N)N)NC(=O)[C@H](Cc2ccccc2)NC(=O)[C@H]([C@@H](C)O)NC1=O [ct-GD20] ({CH2CO}-[dY]LITFRQWAFNLPCG-{NH(CH2CH2O)2(CH2)6Cl}; thioether N-14)
4 | – | 0.00343 s⁻¹ | 109000 M⁻¹ s⁻¹ | B1
